Test results published in patent US20230406838A1, “MUTANT SELECTIVE EGFR INHIBITORS AND METHODS OF USE THEREOF” (Dana-Farber Cancer Institute, Inc., priority 2020, published 2023).

What was measured:
EGFR L858R = EGFR L858R (Homo sapiens, UniProt P00533, L858R); assay: HTRF-based EGFR biochemical assay, L858R; details: 100 μM ATP, enzyme 0.1 nM
Description: (§1) EGFR biochemical activity measurements were carried out using the homogeneous time-resolved fluorescence (HTRF) assay (Cisbio). Inhibitors and DMSO normalizations were first dispensed to empty black low-volume 384-well plates (Corning) with D300 digital liquid dispenser (HP). All reactions were carried out at room temperature and solutions were added to plates with a Multidrop Combi Reagent Dispenser (ThermoFisher). The reaction mixture (10 μL final volume) contained 1 μM tyrosine kinase peptide-biotin substrate and mutant EGFR in a reaction buffer (50 mM HEPES pH 7.0, 5 mM MgCl2, 1 mM MnCl2, 0.01% BSA, 2 mM TCEP, 0.1 mM NaVO4). […] Enzyme reaction solution (2× concentrations, 5 μL) was added to 384-well plates containing compounds and incubated for 30 mins. Enzyme reactions were initiated with the addition of 5 μL of ATP to a final concentration of 100 μM and reacted for 20 mins.

EGFR L858R/T790M = EGFR L858R/T790M (Homo sapiens, UniProt P00533, L858R/T790M); assay: HTRF-based EGFR biochemical assay, L858R/T790M; details: 100 μM ATP, enzyme 0.02 nM
Description: as §1

EGFR WT = EGFR WT (Homo sapiens, UniProt P00533); assay: HTRF-based EGFR biochemical assay, WT; details: 100 μM ATP, enzyme 5 nM
EGFR L858R/T790M/C797S = EGFR L858R/T790M/C797S (Homo sapiens, UniProt P00533, C797S/L858R/T790M); assay: HTRF-based EGFR biochemical assay, L858R/T790M/C797S; details: 100 μM ATP, enzyme 0.02 nM
Description: as §1

Chain of EGFR L858R (P00533 25-1210 L858R): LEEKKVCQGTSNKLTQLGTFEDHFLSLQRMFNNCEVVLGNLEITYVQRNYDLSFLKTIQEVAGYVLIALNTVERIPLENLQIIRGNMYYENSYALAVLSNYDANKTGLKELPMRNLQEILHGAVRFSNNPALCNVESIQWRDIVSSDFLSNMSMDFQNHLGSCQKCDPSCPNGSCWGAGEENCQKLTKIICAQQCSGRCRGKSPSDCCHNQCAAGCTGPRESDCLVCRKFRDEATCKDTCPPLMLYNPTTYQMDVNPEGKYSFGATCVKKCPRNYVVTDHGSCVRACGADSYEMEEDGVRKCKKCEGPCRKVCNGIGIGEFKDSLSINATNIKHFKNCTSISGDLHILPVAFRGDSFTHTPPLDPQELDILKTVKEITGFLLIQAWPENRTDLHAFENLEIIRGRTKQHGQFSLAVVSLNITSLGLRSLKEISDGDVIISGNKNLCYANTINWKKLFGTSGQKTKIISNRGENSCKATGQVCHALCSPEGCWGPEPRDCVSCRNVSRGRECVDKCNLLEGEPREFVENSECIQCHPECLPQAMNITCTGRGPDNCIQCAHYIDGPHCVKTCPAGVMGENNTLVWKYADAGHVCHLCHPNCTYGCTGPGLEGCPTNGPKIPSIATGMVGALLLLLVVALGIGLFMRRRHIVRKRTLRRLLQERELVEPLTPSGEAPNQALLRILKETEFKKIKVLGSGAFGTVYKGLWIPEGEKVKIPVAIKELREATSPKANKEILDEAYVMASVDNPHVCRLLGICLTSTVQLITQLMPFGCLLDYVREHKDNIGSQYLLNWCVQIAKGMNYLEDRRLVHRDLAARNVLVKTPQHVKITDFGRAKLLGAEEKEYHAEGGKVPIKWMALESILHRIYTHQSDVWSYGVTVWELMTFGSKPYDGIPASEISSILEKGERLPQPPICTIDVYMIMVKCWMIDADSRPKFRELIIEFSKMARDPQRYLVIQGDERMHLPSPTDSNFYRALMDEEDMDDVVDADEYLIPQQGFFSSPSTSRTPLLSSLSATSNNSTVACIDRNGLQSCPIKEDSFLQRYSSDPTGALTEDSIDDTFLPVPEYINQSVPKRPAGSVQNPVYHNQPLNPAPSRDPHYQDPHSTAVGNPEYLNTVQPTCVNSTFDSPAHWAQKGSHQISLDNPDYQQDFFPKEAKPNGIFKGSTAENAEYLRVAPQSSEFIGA
Chain of EGFR L858R/T790M (P00533 25-1210 T790M/L858R): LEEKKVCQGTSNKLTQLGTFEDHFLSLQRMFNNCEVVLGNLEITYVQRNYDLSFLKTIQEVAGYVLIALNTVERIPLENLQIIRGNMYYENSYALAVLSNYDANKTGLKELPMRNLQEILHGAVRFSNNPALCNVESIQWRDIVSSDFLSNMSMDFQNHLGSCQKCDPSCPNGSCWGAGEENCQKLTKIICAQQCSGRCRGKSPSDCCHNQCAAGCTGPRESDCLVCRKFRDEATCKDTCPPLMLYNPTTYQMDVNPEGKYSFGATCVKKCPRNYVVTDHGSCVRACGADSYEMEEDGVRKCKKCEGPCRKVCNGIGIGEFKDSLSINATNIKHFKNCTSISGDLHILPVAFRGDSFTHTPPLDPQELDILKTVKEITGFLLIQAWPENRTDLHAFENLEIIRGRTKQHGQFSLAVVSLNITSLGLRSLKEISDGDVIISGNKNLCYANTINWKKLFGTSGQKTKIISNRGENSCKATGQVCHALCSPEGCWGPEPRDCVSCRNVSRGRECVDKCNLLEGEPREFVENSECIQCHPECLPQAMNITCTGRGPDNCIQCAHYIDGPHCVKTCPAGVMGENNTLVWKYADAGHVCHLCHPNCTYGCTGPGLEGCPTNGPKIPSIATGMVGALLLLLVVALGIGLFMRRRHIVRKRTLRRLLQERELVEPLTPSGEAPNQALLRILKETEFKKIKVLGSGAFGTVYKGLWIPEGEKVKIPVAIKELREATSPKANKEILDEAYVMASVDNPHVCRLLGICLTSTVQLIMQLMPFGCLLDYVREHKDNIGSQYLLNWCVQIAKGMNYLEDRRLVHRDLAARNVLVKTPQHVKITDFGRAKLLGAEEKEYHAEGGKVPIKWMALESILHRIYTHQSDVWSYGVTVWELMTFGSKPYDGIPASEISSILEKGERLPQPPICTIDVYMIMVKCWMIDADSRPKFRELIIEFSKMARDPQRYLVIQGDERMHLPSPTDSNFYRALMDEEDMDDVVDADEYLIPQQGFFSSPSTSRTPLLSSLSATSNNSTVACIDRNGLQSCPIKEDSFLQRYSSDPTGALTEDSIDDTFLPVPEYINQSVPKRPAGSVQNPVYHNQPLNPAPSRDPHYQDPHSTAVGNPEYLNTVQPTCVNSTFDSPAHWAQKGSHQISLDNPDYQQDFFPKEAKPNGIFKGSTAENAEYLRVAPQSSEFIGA
Chain of EGFR L858R/T790M/C797S (P00533 25-1210 T790M/C797S/L858R): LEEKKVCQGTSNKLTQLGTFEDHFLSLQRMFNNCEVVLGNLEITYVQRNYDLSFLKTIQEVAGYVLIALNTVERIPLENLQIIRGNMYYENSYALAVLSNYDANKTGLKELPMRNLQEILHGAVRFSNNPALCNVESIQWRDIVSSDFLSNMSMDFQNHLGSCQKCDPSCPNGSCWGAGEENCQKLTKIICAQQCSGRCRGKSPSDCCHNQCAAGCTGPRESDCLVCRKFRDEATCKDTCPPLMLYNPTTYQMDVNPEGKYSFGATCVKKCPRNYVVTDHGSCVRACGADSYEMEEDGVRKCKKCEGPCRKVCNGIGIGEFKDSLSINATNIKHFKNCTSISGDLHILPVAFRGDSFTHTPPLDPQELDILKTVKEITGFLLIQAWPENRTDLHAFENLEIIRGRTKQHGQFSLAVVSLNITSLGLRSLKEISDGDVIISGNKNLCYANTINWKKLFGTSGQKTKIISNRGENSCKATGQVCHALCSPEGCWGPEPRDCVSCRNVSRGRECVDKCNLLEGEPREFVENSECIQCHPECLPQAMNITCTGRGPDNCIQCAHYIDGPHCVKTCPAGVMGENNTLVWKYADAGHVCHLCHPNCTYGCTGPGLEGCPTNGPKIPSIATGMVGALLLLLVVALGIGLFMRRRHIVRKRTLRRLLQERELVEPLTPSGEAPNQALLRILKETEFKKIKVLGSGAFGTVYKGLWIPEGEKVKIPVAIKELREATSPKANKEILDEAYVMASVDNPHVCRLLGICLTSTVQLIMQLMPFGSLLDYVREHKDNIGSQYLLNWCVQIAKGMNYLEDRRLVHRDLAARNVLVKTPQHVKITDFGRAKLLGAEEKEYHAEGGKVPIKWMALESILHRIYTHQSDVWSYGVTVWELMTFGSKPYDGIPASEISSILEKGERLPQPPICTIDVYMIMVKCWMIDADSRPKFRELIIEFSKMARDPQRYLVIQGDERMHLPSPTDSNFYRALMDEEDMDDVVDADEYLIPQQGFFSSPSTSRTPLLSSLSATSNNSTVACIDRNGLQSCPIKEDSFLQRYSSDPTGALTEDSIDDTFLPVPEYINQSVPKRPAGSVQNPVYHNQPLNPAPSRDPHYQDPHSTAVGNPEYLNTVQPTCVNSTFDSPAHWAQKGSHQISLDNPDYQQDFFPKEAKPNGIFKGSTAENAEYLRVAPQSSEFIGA
Chain of EGFR WT (P00533 25-1210): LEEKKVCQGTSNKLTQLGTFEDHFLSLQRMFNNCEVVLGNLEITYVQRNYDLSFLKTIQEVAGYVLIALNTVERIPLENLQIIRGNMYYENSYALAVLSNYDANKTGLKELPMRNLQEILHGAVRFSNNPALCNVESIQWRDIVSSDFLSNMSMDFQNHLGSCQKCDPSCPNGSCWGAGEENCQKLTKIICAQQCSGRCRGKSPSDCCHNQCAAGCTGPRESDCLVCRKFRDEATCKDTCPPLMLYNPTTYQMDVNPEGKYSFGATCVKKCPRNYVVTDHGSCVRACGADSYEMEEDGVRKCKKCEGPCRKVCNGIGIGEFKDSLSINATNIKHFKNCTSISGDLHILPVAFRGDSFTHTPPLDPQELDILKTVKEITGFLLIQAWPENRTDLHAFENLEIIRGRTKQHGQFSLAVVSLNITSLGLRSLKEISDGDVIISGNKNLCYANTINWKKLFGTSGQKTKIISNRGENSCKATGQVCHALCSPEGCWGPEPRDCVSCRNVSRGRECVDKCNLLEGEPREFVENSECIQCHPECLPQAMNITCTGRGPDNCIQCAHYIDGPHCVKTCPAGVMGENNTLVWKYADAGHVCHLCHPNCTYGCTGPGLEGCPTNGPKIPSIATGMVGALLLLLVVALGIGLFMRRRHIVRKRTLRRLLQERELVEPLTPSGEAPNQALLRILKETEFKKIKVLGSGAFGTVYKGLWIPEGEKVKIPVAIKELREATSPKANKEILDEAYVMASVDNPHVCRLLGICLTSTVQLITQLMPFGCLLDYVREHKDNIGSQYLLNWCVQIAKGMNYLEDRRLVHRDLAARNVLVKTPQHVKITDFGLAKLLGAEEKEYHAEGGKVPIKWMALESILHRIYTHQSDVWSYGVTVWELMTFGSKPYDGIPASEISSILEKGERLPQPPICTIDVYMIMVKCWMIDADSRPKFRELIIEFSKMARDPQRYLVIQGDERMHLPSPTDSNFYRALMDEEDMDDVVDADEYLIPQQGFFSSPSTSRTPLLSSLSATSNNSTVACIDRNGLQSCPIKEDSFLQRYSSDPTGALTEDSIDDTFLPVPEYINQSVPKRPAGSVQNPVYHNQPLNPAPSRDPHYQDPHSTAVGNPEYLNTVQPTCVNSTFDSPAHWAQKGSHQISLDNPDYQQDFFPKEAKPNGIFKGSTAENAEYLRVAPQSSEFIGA

Row | Structure (SMILES) | IC50 (EGFR L858R) [µM] | IC50 (EGFR L858R/T790M) [µM] | IC50 (EGFR WT) [µM] | IC50 (EGFR L858R/T790M/C797S) [µM]
1 | CSc1nc(-c2cc(NC(=O)c3c(F)cccc3F)cs2)c(-c2ccnc(NC(C)=O)c2)[nH]1 [Compound 011, N-(5-(5-(2-acetamidopyridin-4-yl)-2-(methylthio)-1H-imidazol-4-yl)thiophen-3-yl)-2,6-difluorobenzamide] | > 100 | > 100 | – | –
2 | COc1cccc(C(=O)Nc2ccccc2-c2nc(SC)[nH]c2-c2ccnc(NC(C)=O)c2)c1 [Compound 025, N-(2-(5-(2-acetamidopyridin-4-yl)-2-(methylthio)-1H-imidazol-4-yl)phenyl)-3-methoxybenzamide] | > 100 | > 100 | – | –
3 | CSc1nc(-c2cccc(NC(=O)C3CCCC3)c2)c(-c2ccnc(NC(C)=O)c2)[nH]1 [Compound 001, N-(3-(5-(2-acetamidopyridin-4-yl)-2-(methylthio)-1H-imidazol-4-yl)phenyl)cyclopentane-carboxamide] | 4.2 | 16.7 | – | –
4 | CSc1nc(-c2cccc(NC(=O)c3c(F)cccc3F)c2)c(-c2ccnc(Nc3ccccc3)c2)[nH]1 [Compound 010, 2,6-difluoro-N-(3-(2-(methylthio)-5-(2-(phenylamino)pyridin-4-yl)-1H-imidazol-4-yl)phenyl)benzamide] | 0.032 | 2.38 | 0.015 | –
5 | CSc1nc(-c2ccccc2NC(=O)c2ccco2)c(-c2ccnc(NC(C)=O)c2)[nH]1 [Compound 027, N-(2-(5-(2-acetamidopyridin-4-yl)-2-(methylthio)-1H-imidazol-4-yl)phenyl)furan-2-carboxamide] | > 100 | > 100 | – | –
6 | CSc1nc(-c2ccccc2NC(=O)Nc2ccc(Br)cc2)c(-c2ccnc(NC(C)=O)c2)[nH]1 [Compound 019, N-(4-(4-(2(3-(4-bromophenyl)ureido)phenyl)-2-(methylthio)-1H-imidazol-5-yl)pyridin-2-yl)acetamide] | > 100 | > 100 | – | –
7 | CSc1nc(-c2cccc(NC(=O)Nc3cccc(C(F)(F)F)c3)c2)c(-c2ccnc(NC(C)=O)c2)[nH]1 [Compound 016, N-(4(2-(methylthio)-4-(3-(3-(3-(trifluoromethyl)phenyl)ureido)phenyl)-1H-imidazol-5-yl)pyridin-2-yl)acetamide] | 0.512 | 0.857 | – | –
8 | CSc1nc(-c2ccc(F)c(NC(=O)Cc3c(F)cccc3F)c2)c(-c2ccnc(NC(C)=O)c2)[nH]1 [Compound 052, N-(5-(5-(2-acetamidopyridin-4-yl)-2-(methylthio)-1H-Imidazol-4-yl)-2-fluorophenyl)-2-(2,6-difluorophenyl)acetamide] | 0.969 | 1.89 | – | –
9 | CSc1nc(-c2cccc(NC(=O)Nc3ccccc3)c2)c(-c2ccnc(NC(C)=O)c2)[nH]1 [Compound 020, N-(4-(2-(methylthio)-4-(3-(3-phenylureido)phenyl)-1H-imidazol-5-yl)pyridin-2-yl)acetamide] | > 100 | > 100 | – | –
10 | CSc1nc(-c2cccc(NC(=O)Nc3ccc(Br)cc3)c2)c(-c2ccnc(NC(C)=O)c2)[nH]1 [Compound 015, N-(4-(4-(3-(3-(4-bromophenyl)ureido)phenyl)-2-(methylthio)-1H-imidazol-5-yl)pyridin-2-yl)acetamide] | 6.43 | 5.94 | – | –
11 | CSc1nc(-c2ccccc2NC(=O)c2ccccc2O)c(-c2ccnc(NC(C)=O)c2)[nH]1 [Compound 032, N-(2-(5-(2-acetamidopyridin-4-yl)-2-(methylthio)-1H-imidazol-4-yl)phenyl)-2-hydroxybenzamide] | > 100 | > 100 | – | –
12 | CSc1nc(-c2cccc(NC(=O)CCc3ccccc3)c2)c(-c2ccnc(NC(C)=O)c2)[nH]1 [Compound 037, N-(3-(5-(2-acetamidopyridin-4-yl)-2-(methylthio)-1H-imidazol-4-yl)phenyl)-3-phenylpropanamide] | 1.88 | 7.86 | – | –
13 | CSc1nc(-c2cccc(NC(=O)Nc3ccccc3)c2)c(-c2ccnc(NC(C)=O)c2)[nH]1 [Compound 005, N-(4-(2-(methylthio)-4-(3-(3-phenylureido)phenyl)-1H-imidazol-5-yl)pyridin-2-yl)acetamide] | 3.6 | 3.71 | – | –

Now from value to compound:

Row | IC50 (EGFR L858R) [µM] | IC50 (EGFR L858R/T790M) [µM] | IC50 (EGFR WT) [µM] | IC50 (EGFR L858R/T790M/C797S) [µM] | Structure (SMILES)
14 | > 100 | > 100 | – | – | CSc1nc(-c2ccccc2NC(=O)c2cc(C)cs2)c(-c2ccnc(NC(C)=O)c2)[nH]1 [Compound 026, N-(2-(5-(2-acetamidopyridin-4-yl)-2-(methylthio)-1H-imidazol-4-yl)phenyl)-4-methyl-thiophene-2-carboxamide]
15 | > 100 | > 100 | – | – | CSc1nc(-c2ccccc2NC(=O)c2cccc3[nH]ccc23)c(-c2ccnc(NC(C)=O)c2)[nH]1 [Compound 023, N-(2-(5-(2-acetamidopyridin-4-yl)-2-(methylthio)-1H-imidazol-4-yl)phenyl)-1H-indole-4-carboxamide]
16 | > 100 | > 100 | – | – | CSc1nc(-c2cccc3c2CCC3NC(=O)c2cc(F)cc(F)c2)c(-c2ccnc(NC(C)=O)c2)[nH]1 (centres unmarked) [Compound 057, N-(4-(5-(2-acetamidopyridin-4-yl)-2-(methylthio)-1H-imidazol-4-yl)-2,3-dihydro-1H-inden-1-yl)-3,5-difluorobenzamide]
17 | > 100 | > 100 | – | – | CSc1nc(-c2cccc3c2CCC3NC(=O)c2c(F)cccc2F)c(-c2ccnc(NC(C)=O)c2)[nH]1 (centres unmarked) [Compound 055, N-(4-(5-(2-acetamidopyridin-4-yl)-2-(methylthio)-1H-imidazol-4-yl)-2,3-dihydro-1H-inden-1-yl)-2,6-difluorobenzamide]
18 | > 100 | > 100 | – | – | CSc1nc(-c2ccccc2NC(=O)CCc2ccccc2)c(-c2ccnc(NC(C)=O)c2)[nH]1 [Compound 033, N-(2(5-(2-acetamidopyridin-4-yl)-2-(methylthio)-1H-Imidazol-4-yl)phenyl)-3-phenylpropanamide]
19 | 1.3 | 0.799 | – | – | CSc1nc(-c2cccc(NC(=O)Cc3c(F)cccc3F)c2)c(-c2ccnc(NC(C)=O)c2)[nH]1 [Compound 053, N-(3-(5-(2-acetamidopyridin-4-yl)-2-(methylthio)-1H-Imidazol-4-yl)phenyl)-2-(2,6-difluorophenyl)acetamide]
20 | > 100 | > 100 | – | – | CSc1nc(-c2cc(NC(=O)Cc3ccccc3)cs2)c(-c2ccnc(NC(C)=O)c2)[nH]1 [Compound 012, N-(5-(5-(2-acetamidopyridin-4-yl)-2-(methylthio)-1H-imidazol-4-yl)thiophen-3-yl)-2-phenylacetamide]
21 | 4.23 | 14.5 | – | – | CSc1nc(-c2cccc(NC(=O)C3CC3)c2)c(-c2ccnc(NC(C)=O)c2)[nH]1 [Compound 003, N-(3-(5-(2-acetamidopyridin-4-yl)-2-(methylthio)-1H-imidazol-4-yl)phenyl)cyclopropane-carboxamide]
22 | 3.07 | > 100 | > 100 | > 100 | CSc1nc(-c2ccnc(NC(C)=O)c2)c(-c2cccc(NC(=O)c3c(F)ccc(O)c3CN3Cc4ccccc4C3=O)c2)n1C [Compound 059, N-(3-(4-(2-acetamidopyridin-4-yl)-1-methyl-2-(methylthio)-1H-imidazol-5-yl)phenyl)-6-fluoro-3-hydroxy-2-((1-oxoisoindolin-2-yl)methyl)benzamide]
23 | 1.6 | 2.2 | – | – | CSc1nc(-c2cccc(NC(=O)Nc3ccc(F)c(Cl)c3)c2)c(-c2ccnc(NC(C)=O)c2)[nH]1 [Compound 018]
24 | – | > 100 | > 100 | > 100 | CSc1nc(-c2cccc(NC(=O)c3cc(O)ccc3F)c2)c[nH]1 [Compound 060]
25 | > 100 | > 100 | – | – | CSc1nc(-c2cccc3c2CCC3NC(=O)c2cccc3[nH]ccc23)c(-c2ccnc(NC(C)=O)c2)[nH]1 (centres unmarked) [Compound 056, N-(4(5-(2-acetamidopyridin-4-yl)-2-(methylthio)-1H-imidazol-4-yl)-2,3-dihydro-1H-inden-1-yl)-1H-indole-4-carboxamide]
26 | > 100 | > 100 | > 100 | > 100 | CSc1nc(-c2cccc(NC(=O)c3c(F)ccc(O)c3CN3Cc4ccccc4C3=O)c2)c[nH]1 [Compound 058, 6-fluoro-3-hydroxy-N-(3-(2-(methylthio)-1H-imidazol-4-yl)phenyl)-2-((1-oxoisoindolin-2-yl)methyl)benzamide]
27 | > 100 | > 100 | – | – | CSc1nc(-c2ccccc2NC(=O)C2CCCC2)c(-c2ccnc(NC(C)=O)c2)[nH]1 [Compound 022, N-(2(5-(2-acetamidopyridin-4-yl)-2-(methylthio)-1H-imidazol-4-yl)phenyl)cyclopentane-carboxamide]
28 | 4.13 | 5.3 | – | – | CSc1nc(-c2cccc(NC(=O)Nc3ccc(F)cc3)c2)c(-c2ccnc(NC(C)=O)c2)[nH]1 [Compound 017, N-(4-(4-(3-(3-(4-fluorophenyl)ureido)phenyl)-2-(methylthio)-1H-imidazol-5-yl)pyridin-2-yl)acetamide]
